Results taken from ChEMBL document CHEMBL1671637, “Development, stability, and molecular mechanisms of macrolide resistance in Campylobacter jejuni” (2008).

How the values were obtained:
Campylobacter jejuni [1] = assay: Antimicrobial activity against tylosin pre-exposed compound-resistant Campylobacter jejuni; format: functional
Campylobacter jejuni [2] = assay: Antimicrobial activity against Campylobacter jejuni DC33 harboring 23S rRNA A2074G mutant by agar dilution method; format: functional
Campylobacter jejuni [3] = assay: Antimicrobial activity against Campylobacter jejuni JL277 selected at 4 to 16 times MIC after 3 to 4 days by agar dilution method; format: functional
Campylobacter jejuni [4] = assay: Antimicrobial activity against Campylobacter jejuni DC37 harboring protein L4 G74D mutant by agar dilution method; format: functional
Campylobacter jejuni [5] = assay: Antimicrobial activity against Campylobacter jejuni DC16 harboring protein L4 G74D mutant by agar dilution method; format: functional
Campylobacter jejuni [6] = assay: Antimicrobial activity against Campylobacter jejuni DC8 harboring protein L4 G74D mutant by agar dilution method; format: functional
Campylobacter jejuni [7] = assay: Antimicrobial activity against Campylobacter jejuni DC25 harboring protein L4 G74D mutant by agar dilution method; format: functional
Campylobacter jejuni [8] = assay: Antimicrobial activity against Campylobacter jejuni JL307 harboring protein L22 with insertion of amino acid TSH at position 98 selected at 4 to 16 times MIC after 3 to 4 days by agar dilution method; format: functional
Campylobacter jejuni [9] = assay: Antimicrobial activity against Campylobacter jejuni DC39 harboring protein L4 G74D and G57V mutant by agar dilution method; format: functional
Campylobacter jejuni [10] = assay: Antimicrobial activity against Campylobacter jejuni DC38 harboring protein L4 G74D mutant by agar dilution method; format: functional
Campylobacter jejuni [11] = assay: Antimicrobial activity against Campylobacter jejuni DC22 harboring protein L4 G74D mutant by agar dilution method; format: functional
Campylobacter jejuni [12] = assay: Antimicrobial activity against Campylobacter jejuni JL291 harboring protein L22 with insertion of amino acid TSH at position 98 selected at 4 to 16 times MIC after 3 to 4 days by agar dilution method; format: functional
Campylobacter jejuni [13] = assay: Antimicrobial activity against Campylobacter jejuni JL304 harboring protein L22 with insertion of amino acid TSH at position 98 selected at 4 to 16 times MIC after 3 to 4 days by agar dilution method; format: functional
Campylobacter jejuni [14] = assay: Antimicrobial activity against Campylobacter jejuni JL283 selected at 4 to 16 times MIC after 3 to 4 days by agar dilution method; format: functional
Campylobacter jejuni [15] = assay: Antimicrobial activity against Campylobacter jejuni JL308 harboring protein L22 with insertion of amino acid TSH at position 98 selected at 4 to 16 times MIC after 3 to 4 days by agar dilution method; format: functional
Campylobacter jejuni [16] = assay: Antimicrobial activity against Campylobacter jejuni DC21 harboring protein L4 G74D mutant by agar dilution method; format: functional
Campylobacter jejuni [17] = assay: Antimicrobial activity against Campylobacter jejuni DC9 harboring 23S rRNA A2074G mutant by agar dilution method; format: functional
Campylobacter jejuni [18] = assay: Antimicrobial activity against Campylobacter jejuni JL294 selected at 4 to 16 times MIC after 3 to 4 days by agar dilution method; format: functional
Campylobacter jejuni [19] = assay: Antimicrobial activity against Campylobacter jejuni DC26 infected in 15 days old chicken by agar dilution method in presence of food with tylosin; format: functional
Campylobacter jejuni [20] = assay: Antimicrobial activity against Campylobacter jejuni DC20 harboring protein L4 G74D mutant by agar dilution method; format: functional
Campylobacter jejuni [21] = assay: Antimicrobial activity against Campylobacter jejuni DC35 harboring protein L4 G74D mutant by agar dilution method; format: functional
Campylobacter jejuni [22] = assay: Antimicrobial activity against Campylobacter jejuni JL301 harboring protein L22 with insertion of amino acid TSH at position 98 selected at 4 to 16 times MIC after 3 to 4 days by agar dilution method; format: functional
Campylobacter jejuni [23] = assay: Antimicrobial activity against Campylobacter jejuni DC17 harboring protein L4 G57D mutant by agar dilution method
Campylobacter jejuni [24] = assay: Antimicrobial activity against Campylobacter jejuni JL279 selected at 4 to 16 times MIC after 3 to 4 days by agar dilution method; format: functional
Campylobacter jejuni [25] = assay: Antimicrobial activity against Campylobacter jejuni JL300 harboring protein L22 with insertion of amino acid TSH at position 98 selected at 4 to 16 times MIC after 3 to 4 days by agar dilution method; format: functional
Campylobacter jejuni [26] = assay: Antimicrobial activity against Campylobacter jejuni DC19 harboring protein L4 G57D mutant by agar dilution method
Campylobacter jejuni [27] = assay: Antimicrobial activity against Campylobacter jejuni DC30 by agar dilution method; format: functional
Campylobacter jejuni [28] = assay: Antimicrobial activity against Campylobacter jejuni DC3 harboring 23S rRNA A2074G mutant by agar dilution method; format: functional
Campylobacter jejuni [29] = assay: Antimicrobial activity against Campylobacter jejuni JL286 selected at 4 to 16 times MIC after 3 to 4 days by agar dilution method; format: functional
Campylobacter jejuni [30] = assay: Antimicrobial activity against Campylobacter jejuni JL293 selected at 4 to 16 times MIC after 3 to 4 days by agar dilution method; format: functional
Campylobacter jejuni [31] = assay: Antimicrobial activity against Campylobacter jejuni DC2 infected in 3 days old chicken by agar dilution method; format: functional
Campylobacter jejuni [32] = assay: Antimicrobial activity against Campylobacter jejuni JL305 harboring protein L22 with insertion of amino acid TSH at position 98 selected at 4 to 16 times MIC after 3 to 4 days by agar dilution method; format: functional
Campylobacter jejuni [33] = assay: Antimicrobial activity against Campylobacter jejuni DC31 harboring 23S rRNA A2074G mutant by agar dilution method; format: functional
Campylobacter jejuni [34] = assay: Antimicrobial activity against Campylobacter jejuni DC18 harboring protein L4 G74D mutant by agar dilution method; format: functional
Campylobacter jejuni [35] = assay: Antimicrobial activity against Campylobacter jejuni JL306 harboring protein L22 with insertion of amino acid TSH at position 98 selected at 4 to 16 times MIC after 3 to 4 days by agar dilution method; format: functional
Campylobacter jejuni [36] = assay: Antimicrobial activity against Campylobacter jejuni JL299 harboring protein L22 with insertion of amino acid TSH at position 98 selected at 4 to 16 times MIC after 3 to 4 days by agar dilution method; format: functional
Campylobacter jejuni [37] = assay: Antimicrobial activity against Campylobacter jejuni JL278 selected at 4 to 16 times MIC after 3 to 4 days by agar dilution method; format: functional
Campylobacter jejuni [38] = assay: Antimicrobial activity against Campylobacter jejuni JL288 harboring 23S rRNA A2074C mutant selected at 4 to 16 times MIC after 3 to 4 days by agar dilution method; format: functional
Campylobacter jejuni [39] = assay: Antimicrobial activity against Campylobacter jejuni DC2 infected in 15 days old chicken by agar dilution method; format: functional

Measured: MIC

CC[C@H]1OC(=O)[C@H](C)[C@@H](O[C@H]2C[C@@](C)(OC)[C@@H](O)[C@H](C)O2)[C@H](C)[C@@H](O[C@@H]2O[C@H](C)C[C@H](N(C)C)[C@H]2O)[C@](C)(O)C[C@@H](C)C(=O)[C@H](C)[C@@H](O)[C@]1(C)O [ERYTHROMYCIN]
64 µg/mL: Campylobacter jejuni [7] | Campylobacter jejuni [14] | Campylobacter jejuni [15] | Campylobacter jejuni [19] | Campylobacter jejuni [35] | Campylobacter jejuni [36]
8 µg/mL: Campylobacter jejuni [3] | Campylobacter jejuni [18] | Campylobacter jejuni [23] | Campylobacter jejuni [24] | Campylobacter jejuni [30] | Campylobacter jejuni [37]
16 µg/mL: Campylobacter jejuni [20] | Campylobacter jejuni [26] | Campylobacter jejuni [34]
256 µg/mL: Campylobacter jejuni [8] | Campylobacter jejuni [9] | Campylobacter jejuni [13] | Campylobacter jejuni [32]
1 µg/mL: Campylobacter jejuni [27]
512 µg/mL: Campylobacter jejuni [22]
128 µg/mL: Campylobacter jejuni [4] | Campylobacter jejuni [10] | Campylobacter jejuni [21] | Campylobacter jejuni [25] | Campylobacter jejuni [29]
> 512 µg/mL: Campylobacter jejuni [1] | Campylobacter jejuni [2] | Campylobacter jejuni [17] | Campylobacter jejuni [28] | Campylobacter jejuni [33] | Campylobacter jejuni [38]
32 µg/mL: all other assays above
